# Test results: patent publication US11813353B2, “Pharmaceutical compositions for the nasal administration of a cobalamin compound” (INNOTESTO BV, priority 2020, dated 2023)
# Read-outs that look alike come from different tables or passages of the source.
# Key:
# [1] = about 0.1% (w/w); versus benzalkonium chloride; cited from earlier work
# [2] = 6 Crohn's disease patients, 1500 μg nasal, cited from earlier work
# [3] = Nasal absorption of hydroxocobalamin nasal spray in healthy volunteers; format: in vivo, human
# Description: Healthy volunteers received a dose of 500 μg hydroxocobalamin in 50 μl nasal spray containing as main constituents hydroxocobalamin, mannitol 10% w/v, propylene glycol 10% v/v and water (total dose 500 μg hydroxocobalamin HCl) using an Aptar VP7 spray pump. The following increases of hydroxocobalamin blood levels (increase from C t=0 to Cmax after 30 minutes) were measured: […]
# [4] = geriatric patients, cited from earlier work
# nasal epithelial cells = conditions: 1% concentration; cited from earlier work
# [5] = healthy volunteers, 500 μg nasal spray
compound,measurement,setting,value
C/C=C/C=C/C(=O)[O-].[K+] [potassium sorbate],safety as a preservative in nasal products,[1],much more safe than benzalkonium chloride
C/C1=C2/[N-][C@H]([C@H](CC(N)=O)[C@@]2(C)CCC(=O)NC[C@@H](C)OP(=O)([O-])O[C@H]2[C@@H](O)[C@@H](n3cnc4cc(C)c(C)cc43)O[C@@H]2CO)[C@]2(C)N=C(/C(C)=C3N=C(/C=C4N=C1[C@@H](CCC(N)=O)C\4(C)C)[C@@H](CCC(N)=O)[C@]\3(C)CC(N)=O)[C@@H](CCC(N)=O)[C@]2(C)CC(N)=O.[Co+3].[OH-] [hydroxocobalamin],mean increase in vitamin B12 level,"[2]; three days, SD 645 pg/ml",1520 pg/mL
same,CV (coefficient of variation) of mean increase,[2],42.5%
same,irritation in the nose,[3]; [5],None of the volunteers
same,presence of red crustae in the nose afterwards,[3]; [5],None of the volunteers
same,CV (coefficient of variation) of mean increase,"[3]; healthy volunteers, 500 μg nasal spray, mannitol 10% w/v, propylene glycol 10% v/v",23%
same,vitamin B12 Cmax levels,"[3]; healthy volunteers, 500 μg nasal spray, exceeded in none of the volunteers",≤ 1.5 ng/mL
same,Mean increase per 500 μg Hydroxocobalamin,"[3]; healthy volunteers, nasal spray, mannitol 10% w/v, propylene glycol 10% v/v, water, SD=127 pg/ml",549 pg/mL
same,"increase of hydroxocobalamin blood levels, alternative composition","[3]; nasal spray with mannitol 5% w/v, propylene glycol 15% v/v and water",Comparable results
same,Cmax levels (±SD) after nasal administration,[4]; dose of 750 μg,2.7 ± 1.2 ng/mL
same,Cmax levels (±SD) after nasal administration,[4]; dose,4.7 ± 3.4 ng/mL
OC[C@@H](O)[C@@H](O)[C@H](O)[C@H](O)CO [mannitol],cellular damage,nasal epithelial cells,no cellular damage
